Results from US10870638B2, “Pyridazinone compound or its salt, and herbicide containing it” (ISHIHARA SANGYO KAISHA, LTD., priority 2016, dated 2020).

How the values were obtained:
Format in all cases: in vivo
Conditions in all cases: active ingredient amount 31 g/ha, 14th day after application
[1] = tested on: barnyardgrass (Echinochloa crus-qalli L.); assay: Test Example 1: foliar treatment, growth inhibition rate on 14th day
Summary of the method: (§1)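 Visual 0–100% inhibition scoring (100 = complete kill) at 14 days after foliar treatment of soil-grown seedlings at species-specific leaf stages, with the compound sprayed as a wettable powder or emulsifiable concentrate dilution.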

corn (Zea mays L.) [2] = assay: as above
Summary of the method: as §1

[3] = tested on: crabgrass (Digitaria sanquinalis L.); assay: as above
Summary of the method: as §1

[4] = tested on: green foxtail (Setaria viridis L.); assay: as above
Summary of the method: (§2)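 Inhibition was rated visually 14 days after treatment on a 0–100% scale, where 100 is complete kill. Compounds, formulated as wettable powders or emulsifiable concentrates at set active-ingredient amounts, were diluted to 1,000 L/ha with 0.1 vol% spreader. The dilutions were sprayed post-emergence onto soybean (primary leaf), rice (0.2–2.7 leaf), wild oat (0.4–1.2) and green foxtail (0.5–3.2).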

[5] = tested on: italian ryegrass (Lolium multiflorum Lam.); assay: as above
Summary of the method: as §1

[6] = tested on: redroot pigweed (Amaranthus retroflexus L.); assay: as above
Summary of the method: as §1

rice (Oryza sativa L.) [7] = assay: as above
Summary of the method: as §2

[8] = tested on: soybean (Glycine max Merr.); assay: as above
Summary of the method: as §2

[9] = tested on: wheat (Triticum aestivum L.); assay: as above
Summary of the method: as §1

[10] = tested on: wild oat (Avena fatua L.); assay: as above
Summary of the method: as §2

[11] = tested on: barnyardgrass (Echinochloa crus-qalli L.); assay: Test Example 2: soil application on the day after sowing, growth inhibition rate on 14th day
Summary of the method: (§3)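 Growth inhibition (%) judged by eye at day 14, scale 0 = as untreated to 100 = complete kill. Compounds formulated as wettable powders or emulsifiable concentrates, diluted in 1,000 L water per ha and sprayed onto pot soil one day post-sowing at set active-ingredient rates.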

corn (Zea mays L.) [12] = assay: as above
Summary of the method: as §3

[13] = tested on: crabgrass (Digitaris sanquinalis L.); assay: as above
Summary of the method: as §3

[14] = tested on: green foxtail (Setaria viridis L.); assay: as above
Summary of the method: as §3

[15] = tested on: prickly sida (Sida spinosa L.); assay: as above
Summary of the method: as §3

[16] = tested on: redroot pigweed (Amaranthus retroflexus L.); assay: as above
Summary of the method: as §3

rice (Oryza sativa L.) [17] = assay: as above
Summary of the method: as §3

[18] = tested on: soybean (Glycine max Merr.); assay: as above
Summary of the method: as §3

[19] = tested on: velvetleaf (Abutilon theophrasti MEDIC.); assay: as above
Summary of the method: as §3

[20] = tested on: wheat (Triticum aestivum L.); assay: as above
Summary of the method: as §3

[21] = visual, 0 = non-treated, 100 = complete kill

Structure (SMILES)	Growth inhibition rate (%) Barnyardgrass [11]	Growth inhibition rate (%) Corn (corn (Zea mays L.) [12])	Growth inhibition rate (%) Crabgrass [13]	Growth inhibition rate (%) Green foxtail [14]	Growth inhibition rate (%) Prickly sida [15]	Growth inhibition rate (%) Redroot pigweed [16]	Growth inhibition rate (%) Rice (rice (Oryza sativa L.) [17])	Growth inhibition rate (%) Soybean [18]	Growth inhibition rate (%) Velvetleaf [19]	Growth inhibition rate (%) Wheat [20]	Growth inhibition rate (%) Barnyardgrass [1]	Growth inhibition rate (%) Corn (corn (Zea mays L.) [2])	Growth inhibition rate (%) Crabgrass [3]	Growth inhibition rate (%) Green foxtail [4]	Growth inhibition rate (%) Italian ryegrass [5]	Growth inhibition rate (%) Redroot pigweed [6]	Growth inhibition rate (%) Rice (rice (Oryza sativa L.) [7])	Growth inhibition rate (%) Soybean [8]	Growth inhibition rate (%) Wheat [9]	Growth inhibition rate (%) Wild oat [10]	also measured
Cc1ccc(Oc2cnc3cc(Cl)ccc3n2)cc1-c1c(OC(=O)Oc2ccc(F)cc2)c(C)nn(C)c1=O [Compound 3-57]	90%	40%	30%	95%	0%	0%	0%	30%	0%	0%											Growth inhibition rate (%) Barnyardgrass [1, 21]: 100%; Growth inhibition rate (%) Corn (corn (Zea mays L.) [2]; [21]): 25%; Growth inhibition rate (%) Crabgrass [3, 21]: 99%; Growth inhibition rate (%) Green foxtail [4, 21]: 100%; Growth inhibition rate (%) Italian ryegrass [5, 21]: 95%; Growth inhibition rate (%) Redroot pigweed [6, 21]: 0%; Growth inhibition rate (%) Rice (rice (Oryza sativa L.) [7]; [21]): 0%; Growth inhibition rate (%) Soybean [8, 21]: 25%; Growth inhibition rate (%) Wheat [9, 21]: 95%; Growth inhibition rate (%) Wild oat [10, 21]: 99%
Cc1ccc(Oc2ncc(Br)cc2Cl)cc1-c1c(O)c(C)nn(C)c1=O [Compound 2-101]	78%	20%	93%	95%	0%	0%	0%	0%	0%	10%	75%	80%	85%	88%	50%	0%	0%	20%	0%	70%	
CCc1ccc(Oc2nc3ccccc3o2)cc1-c1c(O)c(C)nn(C)c1=O [Compound 2-166]	99%	0%	95%	100%	0%	0%	70%	0%	0%	0%	100%	80%	88%	100%	99%	20%	88%	30%	10%	40%	
CCc1nn(C)c(=O)c(-c2cc(Oc3cnc4cc(Cl)ccc4n3)ccc2C)c1O [Compound 3-34]	99%	20%	65%	98%	0%	0%	20%	0%	0%	0%	100%	15%	95%	100%	99%	0%	90%	30%	90%	95%	
